Reference: US20240358744A1, “WOUND HEALING DRESSINGS AND FORMULATIONS AND METHODS OF USE THEREOF” (POLAROID IP B.V., priority 2023, published 2024)
In brackets after ≈: the same amount, converted by molar mass. Values belong to the molecule of their own block, whether it stands above or below them.

How the values were obtained:
[1] = tested on: Escherichia coli ATCC 25922; test: MBC, spot plating after 24 h; details: for MBC EC25922: Table 18
[2] = tested on: Klebsiella pneumoniae KL1; test: MIC, broth microdilution in MH broth (resazurin); details: Table 17; modified Gompertz model; not marked ^: unreliable estimation, interpret with caution
[3] = tested on: Enterococcus faecalis ATCC 19433; test: MIC, broth microdilution in MH broth (resazurin); details: Table 17, modified Gompertz model
[4] = tested on: Human Keratinocyte (HaCaT) cells; test: LDH cytotoxicity assay, HaCaT; assay type: cell-based; details: Table 16, summarized cell toxicity value, 24 hours treatment
Method: (§1) Primary Human Dermal Fibroblast (HDFs) and Human Keratinocyte (HaCaT) cells were selected for cytotoxicity and proliferation testing. HDFs were cultured in high glucose, no glutamine, no phenol red, Dulbecco's Modified Eagle Medium (DMEM) (GIBCO™). HDF media was further supplemented with 10% heat-inactivated fetal bovine serum (GIBCO™), 1% L-glutamine (GIBCO™) and 1% Penicillin-streptomycin (GIBCO™). HaCaTs cells were cultured in high glucose, no glutamine, no calcium DMEM (GIBCO™) supplemented with 10% heat inactivated foetal bovine serum, 1% L-glutamine, 1% Penicillin-streptomycin 1 mM calcium chloride (Sigma) throughout.
(§2) Mammalian cell populations were maintained in standard culture conditions at 37° C., 5% CO2 and >95% relative humidity. Upon reaching 80% total confluency, cells were removed from the incubator, the culture media aspirated, and the monolayer washed with Dulbecco's […] (DPBS). After washing, 10 mL of 1% trypsin (GIBCO™) was added to the flask and incubated to facilitate the detachment of cells from the culture vessel. Following dissociation, 10 mL of culture media was then added to each flask to neutralize the trypsin enzyme activity. The total 20-mL flask volume was transferred into a universal tube and centrifuged at 400 rcf for 5 minutes. Once complete, the pellet of cells was re-suspended in 10 mL warmed culture media and the number of cells per mL was determined using a hemocytometer counting chamber. Cell suspensions were then adjusted to 5×10^4 cells/mL for HDFs and 1×10^5 cells/mL for HaCaTs. 100 μL of the cell suspension was added to each well of a sterile, cell-culture-treated 96-well microtiter plate. The plates were incubated in standard culture conditions for 16-24 hours to allow cellular adherence to the culture vessel. […] Culture plates were removed from the incubator, the media removed; and monolayers washed with 100 μL of warmed DPBS. The contents of the test item dilution plates were transferred to the culture plates. […]
(§3) The secretion of lactate dehydrogenase (LDH) enzyme was used for quantitatively measuring cell damage and cytotoxicity. As damage to the cell plasma membrane releases LDH into the cell culture media, the extracellular LDH in the media can be quantified by a coupled enzymatic reaction in which LDH catalyzes the conversion of lactate to pyruvate via NAD+ reduction to NADH. […]
(§4) Following incubation with the selected compounds, 50 μL of media from each well was transferred to the corresponding well of a fresh 96 well culture plate. The presence of Lactate dehydrogenase (LDH) was then quantified using the INVITROGEN™ CyQUANT™ LDH Cytotoxicity Assay, fluorescence kit. Total fluorescence was measured by reading the plates on a plate reader at an excitation of 560 nm and an emission of 590 nm. […]

[5] = tested on: Primary Human Dermal Fibroblast (HDFs); test: LDH cytotoxicity assay, HDF; assay type: cell-based; details: Table 16, summarized cell toxicity value, 24 hours treatment
Method: as §1, §2, §3, §4

[6] = tested on: Klebsiella pneumoniae KL1; test: MBC, spot plating after 24 h
[7] = tested on: Staphylococcus aureus MR1; test: MIC, broth microdilution in MH broth (resazurin); details: Table 17; modified Gompertz model; not marked ^: unreliable estimation, interpret with caution
[8] = tested on: Pseudomonas aeruginosa ATCC 27853; test: MIC, broth microdilution in MH broth (resazurin); details: Table 17; modified Gompertz model; not marked ^: unreliable estimation, interpret with caution
[9] = tested on: Escherichia coli ATCC 25922; test: MIC, broth microdilution in MH broth (resazurin); details: Table 17; modified Gompertz model; not marked ^: unreliable estimation, interpret with caution
[10] = tested on: Staphylococcus aureus NRS384; assay type: cell-based; details: Example 11
[11] = tested on: Staphylococcus aureus MR1; test: MBC, spot plating after 24 h; details: Example 11
[12] = tested on: Staphylococcus aureus ATCC 29213; test: MBC, spot plating after 24 h; details: Staphylococcus aureus 29213; Example 11
[13] = tested on: Enterococcus faecalis ATCC 51299; test: MBC, spot plating after 24 h; details: Enterococcus faecalis EF51299; Example 11
[14] = tested on: Pseudomonas aeruginosa ATCC 27853; test: MBC, spot plating after 24 h; details: Pseudomonas aeruginosa 27853; Example 11
[15] = tested on: Enterococcus faecalis ATCC 19433; test: MBC, spot plating after 24 h; details: Enterococcus faecalis EF19433; Example 11
S. aureus NRS 384 = test: Mouse Staphylococcus aureus-induced wound infection model, bacteria load in wound site (Studies I-V); details: for Ig(CFU/wound site) / ΔIg(CFU/wound site) vs infection control: Study III (Table 12), 1 mg/ml
[16] = Assessment of MIC of select compounds, DMSO stocks (Example 8, Table 21); assay type: cell-based
[17] = tested on: Staphylococcus aureus NRS384; test: Murine wound infection model, bacterial CFU/wound (Example 6); details: Study 2 pilot; daily application of vancomycin (10 μg per wound)
[18] = 10 μL/wound site, 10 μg/wound site, twice a day, 24 h p.i.
[19] = 10 μL/wound site, 10 μg/wound site, twice a day, 48 h p.i.
[20] = 10 μL/wound site, 10 μg/wound site, twice a day, 72 h p.i.
[21] = 50 μL/wound site, 50 μg/wound site, twice a day, 24 h p.i.

Compound: CCCCCCCCCCCCCCCCCC[N+](C)(C)CCOCCO.[Br-] [39637 105543]
MBC EC25922 [1]: 25 µM

MIC KL1 [2]: +infinity | MIC EF19433 ([3]; marked ^: reliable estimation of MIC): 3.20^ μM
Compound: CCCCCCCCCCCCCCCCCC[N+](C)(C)CCOCCO.[Br-] [Compound 39637_105543]
Mammalian Cell Cytotoxicity, HaCaT [4]: 6.3 µM | Mammalian Cell Cytotoxicity, HDF [5]: 6.3 µM

Compound: CCCCCCCCCCCCCCCCCC[N+](C)(C)CCOCCO.[Br-] [Compound 39637_109466]
Mammalian Cell Cytotoxicity, HaCaT [4]: 6.3 µM | MBC KL1 ([6]; Table 18): 50 µM | MBC EC25922 [1]: 25 µM | Mammalian Cell Cytotoxicity, HDF [5]: 6.3 µM

MIC KL1 [2]: 0.01 µM | MIC MR1 [7]: 0.94 µM
Compound: CCCCCCCCCCCC[N+](C)(C)CCOCCO.[Br-] [Compound 40597_109444]
Mammalian Cell Cytotoxicity, HaCaT [4]: 100 µM | Mammalian Cell Cytotoxicity, HDF [5]: 100 µM

MIC PA27853 [8]: 0.06 µM | MIC EF19433 ([3]; not marked ^: unreliable estimation, interpret with caution): Unstable | MIC EC25922 [9]: 0.83 µM
Compound: CCCCCC[N+](C)(C)CCOCCO.[Br-] [Compound 40598_109448]
Mammalian Cell Cytotoxicity, HaCaT [4]: >100 µM | Mammalian Cell Cytotoxicity, HDF [5]: >100 µM

Compound: CN[C@H](CC(C)C)C(=O)N[C@H]1C(=O)N[C@@H](CC(N)=O)C(=O)N[C@H]2C(=O)N[C@H]3C(=O)N[C@H](C(=O)N[C@H](C(=O)O)c4cc(O)cc(O)c4-c4cc3ccc4O)[C@H](O)c3ccc(c(Cl)c3)Oc3cc2cc(c3O[C@@H]2O[C@H](CO)[C@@H](O)[C@H](O)[C@H]2O[C@H]2C[C@](C)(N)[C@H](O)[C@H](C)O2)Oc2ccc(cc2Cl)[C@H]1O [Van]
MBC Concentration (μM) C [10]: 0.02 µM (≈ 0.029 µg/mL) | MBC Concentration (μM) B [11]: 0.02 µM (≈ 0.029 µg/mL) | MBC Concentration (μM) A [12]: 0.02 µM (≈ 0.029 µg/mL) | MBC Concentration (μM) D [13]: 0.04 µM (≈ 0.058 µg/mL) | MBC Concentration (μM) F ([6]; Klebisella pneumoniae KL1, Example 11): 1.25 µM (≈ 1.81 µg/mL) | MBC Concentration (μM) G [14]: 2.50 µM (≈ 3.62 µg/mL) | MBC Concentration (μM) H ([1]; Escherichia coli EC25922, Example 11): 0.31 µM (≈ 0.449 µg/mL) | MBC Concentration (μM) E [15]: 0.08 µM (≈ 0.116 µg/mL)

Compound: CN[C@H](CC(C)C)C(=O)N[C@H]1C(=O)N[C@@H](CC(N)=O)C(=O)N[C@H]2C(=O)N[C@H]3C(=O)N[C@H](C(=O)N[C@H](C(=O)O)c4cc(O)cc(O)c4-c4cc3ccc4O)[C@H](O)c3ccc(c(Cl)c3)Oc3cc2cc(c3O[C@@H]2O[C@H](CO)[C@@H](O)[C@H](O)[C@H]2O[C@H]2C[C@](C)(N)[C@H](O)[C@H](C)O2)Oc2ccc(cc2Cl)[C@H]1O [Vancomycin]
Ig (CFU/wound site) 12 h p.i. (S. aureus NRS 384; Study I, inoculum 4.20E+06 CFU/wound site, 39637 and 20-1 100 μM, 50 μL/wound site, once a day, Vancomycin 1 mg/ml, 10 μL/wound site, twice a day, starting at 5 min p.i.): 8.47 ± 0.22 Ig (CFU/wound site) | Ig (CFU/wound site) 24 h p.i. (S. aureus NRS 384; Study I, same regimens as E1): 7.67 ± 0.60 Ig (CFU/wound site) | ΔIg (CFU/wound site) vs 12 h infection control (S. aureus NRS 384; Study I, same regimens as E1): −0.11 ± 0.22 Ig (CFU/wound site) | ΔIg (CFU/wound site) vs 24 h infection control (S. aureus NRS 384; Study I, same regimens as E1): −1.12 ± 0.60 Ig (CFU/wound site) | effect at 12-hour post infection (S. aureus NRS 384; Study I, single dose at 10 μg): not manifest | Ig(CFU/wound site) (S. aureus NRS 384; [18]): 7.67 Ig(CFU/wound site) | ΔIg(CFU/wound site) vs infection control (S. aureus NRS 384; [18]): −1.11 Ig(CFU/wound site) | Ig(CFU/wound site) (S. aureus NRS 384; [19]): 5.29 Ig(CFU/wound site) | ΔIg(CFU/wound site) vs infection control (S. aureus NRS 384; [19]): −3.28 Ig(CFU/wound site) | Ig(CFU/wound site) (S. aureus NRS 384; [20]): 5.12 Ig(CFU/wound site) | ΔIg(CFU/wound site) vs infection control (S. aureus NRS 384; [20]): −2.83 Ig(CFU/wound site) | Ig(CFU/wound site) (S. aureus NRS 384; [21]): 4.37 Ig(CFU/wound site) | ΔIg(CFU/wound site) vs infection control (S. aureus NRS 384; [21]): −4.40 Ig(CFU/wound site) | MIC Concentration ([16]; Enterococcus faecalis EF19433): 5.00 µM | MIC Concentration ([16]; Escherichia coli EC25922): 0.63 µM | MIC Concentration ([16]; Klebisella oxytoca KL1): 0.63 µM | MIC Concentration ([16]; Pseudomonas aeruginosa 27853): 5.00 µM | MIC Concentration ([16]; Staphylococcus aureus 29213): 0.04 µM | MIC Concentration ([16]; Staphylococcus aureus MR1): 0.04 µM | MIC Concentration ([16]; Staphylococcus aureus NRS384): 0.04 µM | log reduction in wound S. aureus at 24 hrs post-seeding [17]: 1 log | log reduction in wound S. aureus at 72 hrs post-seeding [17]: 1 log
